Assay results taken from patent publication US7160888B2, “[1,8]naphthyridin-2-ones and related compounds for the treatment of schizophrenia” (Warner Lambert Company LLC, priority 2003, dated 2007).

Molecular target: D2 receptor (Homo sapiens, UniProt P14416)
Experiment: [3H]Thymidine uptake assay for D2 intrinsic activity
Assay type: cell-based
Details: test compound 1 μM, 1 μM Quinpirole = 100% intrinsic activity

Chain of D2 receptor (P14416 whole entry): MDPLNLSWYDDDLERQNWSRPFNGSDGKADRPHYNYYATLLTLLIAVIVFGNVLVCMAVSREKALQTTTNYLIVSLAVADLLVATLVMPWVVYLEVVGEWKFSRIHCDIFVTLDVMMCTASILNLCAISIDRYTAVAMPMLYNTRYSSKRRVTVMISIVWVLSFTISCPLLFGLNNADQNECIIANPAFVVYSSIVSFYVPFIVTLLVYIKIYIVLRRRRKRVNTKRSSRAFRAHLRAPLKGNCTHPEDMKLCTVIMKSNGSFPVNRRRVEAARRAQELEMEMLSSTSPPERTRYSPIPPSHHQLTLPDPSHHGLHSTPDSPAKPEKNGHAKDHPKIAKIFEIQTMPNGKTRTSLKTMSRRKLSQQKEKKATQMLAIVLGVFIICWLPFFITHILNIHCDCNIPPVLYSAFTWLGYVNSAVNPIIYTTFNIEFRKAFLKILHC

Emax at 1 µM (Table 1) | Compound | Emax at 1 µM (Table 2)
 | CC1(C)CC(=O)Nc2nc(OCCCCN3CCN(c4cccc5ccc(=O)[nH]c45)CC3)ccc21 [Example C4′, 4,4-Dimethyl-7-{4-[4-(2-oxo-1,2-dihydro-quinolin-8-yl)-piperazin-1-yl]-butoxy}-3,4-dihydro-1H-[1,8]naphthyridin-2-one] | 21%
 | CC1(C)CC(=O)Nc2nc(OCCCCN3CCN(c4cccc5ccoc45)CC3)ccc21 [Example C5′, 7-[4-(4-Benzofuran-7-yl-piperazin-1-yl)-butoxy]-4,4-dimethyl-3,4-dihydro-1H-[1,8]naphthyridin-2-one] | 23%
 | CC1(C)CC(=O)Nc2nc(OCCCCN3CCN(c4cccc5c4OCCC5)CC3)ccc21 [Example C6′, 7-[4-(4-Chroman-8-yl-piperazin-1-yl)-butoxy]-4,4-dimethyl-3,4-dihydro-1H-[1,8]naphthyridin-2-one] | 24%
5% | Cc1cccc(N2CCN(CCCCCc3ccc4c(n3)NC(=O)CC4)CC2)c1Cl [Example C10, 7-{5-[4-(2-Chloro-3-methyl-phenyl)-piperazin-1-yl]-pentyl}-3,4-dihydro-1H-[1,8]naphthyridin-2-one] | 
7% | O=C1CCc2ccc(CCCCCN3CCN(c4ccc(F)c(Cl)c4Cl)CC3)nc2N1 [Example C11, 7-{5-[4-(2,3-Dichloro-4-fluoro-phenyl)-piperazin-1-yl]-pentyl}-3,4-dihydro-1H-[1,8]naphthyridin-2-one] | 
12% | O=C1CCc2ccc(CCCCCN3CCN(c4cccc5c4CCCC5)CC3)nc2N1 [Example C12, 7-{5-[4-(5,6,7.8-Tetrahydro-naphthalen-1-yl)-piperazin-1-yl]-pentyl}-3,4-dihydro-1H-[1,8]naphthyridin-2-one] | 
14% | O=C1CCc2ccc(CCCCCN3CCN(c4cccc5ccccc45)CC3)nc2N1 [Example C13, 7-[5-(4-Naphthalen-1-yl-piperazin-1-yl)-pentyl]-3,4-dihydro-1H-[1,8]naphthyridin-2-one] | 
10% | O=C1CCc2ccc(CCCCCN3CCN(c4ccc(F)cc4Cl)CC3)nc2N1 [Example C14, 7-{5-[4-(2-Chloro-4-fluoro-phenyl)-piperazin-1-yl]-pentyl}-3,4-dihydro-1H-[1,8]naphthyridin-2-one] | 
8% | Cc1c(F)ccc(N2CCN(CCCCCc3ccc4c(n3)NC(=O)CC4)CC2)c1Cl [Example C15, 7-{5-[4-(2-Chloro-4-fluoro-3-methyl-phenyl)-piperazin-1-yl]-pentyl}-3,4-dihydro-1H-[1,8]naphthyridin-2-one] | 
34% | Cc1cccc(N2CCN(CCCCCc3ccc4c(n3)NC(=O)CC4)CC2)n1 [Example C16, 7-{5-[4-(6-Methyl-pyridin-2-yl)-piperazin-1-yl]-pentyl}-3,4-dihydro-1H-[1,8]naphthyridin-2-one] | 
21% | CCc1cccc(N2CCN(CCCCCc3ccc4c(n3)NC(=O)CC4)CC2)n1 [Example C17, 7-{5-[4-(6-Ethyl-pyridin-2-yl)-piperazin-1-yl]-pentyl}-3,4-dihydro-1H-[1,8]naphthyridin-2-one] | 
34% | O=C1CCc2ccc(CCCCCN3CCN(c4cccc(C5CC5)n4)CC3)nc2N1 [Example C18, 7-{5-[4-(6-Cyclopropyl-pyridin-2-yl)-piperazin-1-yl]-pentyl}-3,4-dihydro-1H-[1,8]naphthyridin-2-one] | 
13% | Cc1cc(C)nc(N2CCN(CCCCCc3ccc4c(n3)NC(=O)CC4)CC2)c1 [Example C19, 7-{5-[4-(4,6-Dimethyl-pyridin-2-yl)-piperazin-1-yl]-pentyl}-3,4-dihydro-1H-[1,8]naphthyridin-2-one] | 
 | O=C1CCc2cc(F)c(OCCCCN3CCN(c4cccc5cccnc45)CC3)nc2N1 [Example D1′, 6-Fluoro-7-[4-(4-quinolin-8-yl-piperazin-1-yl)-butoxy]-3,4-dihydro-1H-[1,8]naphthyridin-2-one] | 24%
 | O=C1CCc2cc(F)c(OCCCCN3CCN(c4cccc5cnccc45)CC3)nc2N1 [Example D2′, 6-Fluoro-7-[4-(4-isoquinolin-5-yl-piperazin-1-yl)-butoxy]-3,4-dihydro-1H-[1,8]naphthyridin-2-one] | 40%
3% | CC1(C)Cc2ccc(CCCCCN3CCN(c4cccc(Cl)c4Cl)CC3)nc2NC1=O [Example D12, 7-{5-[4-(2,3-Dichloro-phenyl)-piperazin-1-yl]-pentyl}-3,3-dimethyl-3,4-dihydro-1H-[1,8]naphthyridin-2-one] | 

Compound | Emax at 1 µM (Table 1) | Emax at 1 µM (Table 2)
CC(CCCN1CCN(c2cccc(Cl)c2Cl)CC1)Oc1ccc2c(n1)NC(=O)CC2 (centres unmarked) [Example C5, 7-{4-[4-(2,3-Dichloro-phenyl)-piperazin-1-yl]-1-methyl-butoxy}-3,4-dihydro-1H-[1,8]naphthyridin-2-one] | 40% | 
CC(CCCN1CCN(c2cccc3ccccc23)CC1)Oc1ccc2c(n1)NC(=O)CC2 (centres unmarked) [Example C6, 7-[1-Methyl-4-(4-naphthalen-1-yl-piperazin-1-yl)-butoxy]-3,4-dihydro-1H-[1,8]naphthyridin-2-one] | 44% | 
CC(C)(CCCN1CCN(c2cccc(Cl)c2Cl)CC1)Oc1ccc2c(n1)NC(=O)CC2 [Example C7, 7-{4-[4-(2,3-Dichloro-phenyl)-piperazin-1-yl]-1,1-dimethyl-butoxy}-3,4-dihydro-1H-[1,8]naphthyridin-2-one] | 46% | 
CC(C)(CCCN1CCN(c2cccc3ccccc23)CC1)Oc1ccc2c(n1)NC(=O)CC2 [Example C8, 7-[1,1-Dimethyl-4-(4-naphthalen-1-yl-piperazin-1-yl)-butoxy]-3,4-dihydro-1H-[1,8]naphthyridin-2-one] | 33% | 
Cc1cc2ccc(OCCCCN3CCN(c4cccc(Cl)c4Cl)CC3)nc2[nH]c1=O [Example D4, 7-{4-[4-(2,3-Dichloro-phenyl)-piperazin-1-yl]-butoxy}-3-methyl-1H-[1,8]naphthyridin-2-one] | 16% | 
O=c1[nH]c2nc(OCCCCN3CCN(c4cccc(Cl)c4Cl)CC3)ccc2cc1F [Example D9, 7-{4-[4-(2,3-Dichloro-phenyl)-piperazin-1-yl]-butoxy}-3-fluoro-1H-[1,8]naphthyridin-2-one] | 15% | 
O=c1[nH]c2nc(OCCCCN3CCN(c4cccc5ccccc45)CC3)ccc2cc1F [Example D10, 3-Fluoro-7-[4-(4-naphthalen-1-yl-piperazin-1-yl)-butoxy]-1H-[1,8]naphthyridin-2-one] | 22% | 
O=c1[nH]c2nc(OCCCCN3CCN(c4cccc5ccccc45)CC3)ccc2cc1CC(F)(F)F [Example D11, 7-[4-(4-Naphthalen-1-yl-piperazin-1-yl)-butoxy]-3-(2,2,2-trifluoro-ethyl)-1H-[1,8]naphthyridin-2-one] | 30% | 
CC1(C)Cc2ccc(OCCCCN3CCN(c4cccc(Cl)c4Cl)CC3)nc2NC1=O [Example D13, 7-{4-[4-(2,3-Dichloro-phenyl)-piperazin-1-yl]-butoxy}-3,3-dimethyl-3,4-dihydro-1H-[1,8]naphthyridin-2-one] | 19% | 
CC1(C)C(=O)Nc2nc(OCCCCN3CCN(c4cccc(Cl)c4Cl)CC3)ccc2C1=O [Example D14, 7-{4-[4-(2,3-Dichloro-phenyl)-piperazin-1-yl]-butoxy}-3,3-dimethyl-1H-[1,8]naphthyridine-2,4-dione] | 3% | 
